In PubChem BioAssay (NCI):
Several values for one entry are separate records, joined by “and”; a condition that tells them apart may be missing. Equal entries are not always repeated.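 Assay format: 96-well plates, 48-hour exposure. GI50 = concentration required for 50% inhibition of growth. TGI denotes the concentration required for complete inhibition of growth.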

Columns and labels:
Test in all cases: NCI-60 cell line screen, 48 h
OVCAR-5 ovarian = system: OVCAR-5 ovarian
MCF7 breast = system: MCF7 breast
SK-OV-3 ovarian = system: SK-OV-3 ovarian
HCT-15 colon = system: HCT-15 colon
NCI-H23 lung = system: NCI-H23 lung
SF-295 CNS = system: SF-295 CNS
CAKI-1 renal = system: CAKI-1 renal
786-0 renal = system: 786-0 renal
MALME-3M melanoma = system: MALME-3M melanoma
SF-268 CNS = system: SF-268 CNS

SMILES	TGI (OVCAR-5 ovarian)	TGI (MCF7 breast)	TGI (SK-OV-3 ovarian)	TGI (HCT-15 colon)	TGI (NCI-H23 lung)	TGI (SF-295 CNS)	TGI (CAKI-1 renal)	TGI (786-0 renal)	TGI (MALME-3M melanoma)	TGI (SF-268 CNS)	GI50 (OVCAR-5 ovarian) [µM]	GI50 (MCF7 breast)	GI50 (SK-OV-3 ovarian)	GI50 (HCT-15 colon)	GI50 (NCI-H23 lung)	GI50 (SF-295 CNS)	GI50 (CAKI-1 renal)	GI50 (786-0 renal) [nM]	GI50 (MALME-3M melanoma)	GI50 (SF-268 CNS)
CC(NC(=O)C1(N)CCCC1)C(=O)O (configuration not stated)	> 100 µM	> 100 µM	> 100 µM	> 100 µM	> 100 µM	> 100 µM	> 100 µM	> 100 µM	> 100 µM	> 100 µM										
COc1ccc(/C=C/c2cnnc3ccccc23)cc1OC	> 10 µM	> 10 µM	> 10 µM	> 10 µM	> 10 µM	> 10 µM	> 10 µM	> 10 µM	> 10 µM	> 10 µM										
N=C(N)c1ccc(-c2ccc(-c3ccccc3)o2)o1	10.9 µM	5.61 µM	16 µM	4.22 µM	19.8 µM	4.03 µM	14.2 µM	3.54 µM	3.53 µM	12.3 µM	2.7	1680 nM	4.3 µM	1160 nM	5780 nM	1810 nM	3400 nM	1740	1750 nM	2980 nM
c1ccc(Oc2cnc3ccccc3n2)cc1	> 100 µM	> 100 µM	> 100 µM	> 100 µM	> 100 µM	> 100 µM	50 µM	> 100 µM	> 100 µM	> 100 µM	> 100	> 100000 nM	> 100 µM	> 100000 nM	> 100000 nM	36400 nM	10200 nM	> 100000	> 100000 nM	64000 nM
CCCCCCCCCCCC(=O)[O][Sn]([CH2]CCC)([CH2]CCC)[CH2]CCC	0.164 µM	0.161 µM	0.193 µM	0.168 µM	0.145 µM	0.177 µM	0.216 µM	0.132 µM	0.0772 µM	0.199 µM	0.0548	37 nM	0.0617 µM	45.6 nM	31.2 nM	67.9 nM	96.5 nM	53.9	21.1 nM	53.5 nM
COc1cccc(-c2nn(C)c3sc(C(=O)NCCN4CCN(c5ccccc5F)CC4)cc23)c1	96.6 µM	> 100 µM	> 100 µM	15.5 µM	> 100 µM	29 µM	91.5 µM	25.1 µM	53.5 µM	> 100 µM	6.55	6540 nM	> 100 µM	3180 nM	34500 nM	4850 nM	9020 nM	5240	9490 nM	46900 nM
CC(=O)SC(C[N+](=O)[O-])c1ccccc1 (configuration not stated)	9.11 µM	4.35 µM	26.2 µM	4.85 µM	38.3 µM	15.9 µM	29.3 µM	23.7 µM	35.9 µM	22.6 µM										
Nc1ncnc2c1c(-c1ccc(Oc3ccccc3)cc1)nn2C[C@H]1SSC[C@H]1O	> 31.3 µM	1.2 µM	1.31 µM	2.29 µM	0.968 µM	3.19 µM	2.85 µM	6.37 µM	0.332 µM		2.2	46.5 nM	0.222 µM	201 nM	242 nM	678 nM	938 nM	2040	81.5 nM	
COc1ccc(S(=O)(=O)Nc2c(/C=C\c3cc(OC)c(OC)c(OC)c3)ccc(OC)c2O)cc1OC	> 100 µM	> 100 µM	> 100 µM	> 100 µM	> 100 µM	> 100 µM	> 100 µM	> 100 µM	> 100 µM	> 100 µM	0.751	40.5 nM	1.29 µM	308 nM	318 nM	242 nM	1010 nM	420	> 100000 nM	1290 nM
O=C(/C=C/c1ccco1)c1cccc(Nc2nc(Nc3ccccc3)nc(Nc3ccccc3)n2)c1	> 100 µM	> 52.4 µM	> 100 µM	> 100 µM	> 100 µM	> 25.3 µM	> 100 µM	> 100 µM	> 100 µM	> 100 µM	> 100	1920 nM	> 86.6 µM	5120 nM	26100 nM	2940 nM	23200 nM	8490	> 66700 nM	28700 nM
CCc1cc(Cc2cc(CC)cc(C(C)(C)C)c2O)c(O)c(C(C)(C)C)c1	21.4 µM	7.74 µM	13.2 µM	11 µM	12.5 µM	4.88 µM	5.75 µM	14.4 µM	3.48 µM	12.6 µM	9.69	2490 nM	3.81 µM	3130 nM	3330 nM	2060 nM	1920 nM	3500	1160 nM	3400 nM
CCCCCCOc1ccc(/C=N/Nc2cc(C)nc3ccc(Br)cc23)cc1	3.36 µM	3.35 µM	3.07 µM	2.88 µM	3.43 µM	3.2 µM	3.04 µM	3.18 µM	3.38 µM	4.24 µM	1.94	1640 nM	1.66 µM	1520 nM	1780 nM	1720 nM	1660 nM	1710	1870 nM	2070 nM
CCOc1ccc(-n2cc(-c3ccc(N(C)C)cc3)[n+]3c2CCCCC3)cc1	> 100 µM	> 100 µM	7.41 µM	> 100 µM	> 43 µM	5.43 µM	> 100 µM	> 100 µM	14.1 µM	> 100 µM	3.74	140 nM	1.61 µM	10100 nM	93.5 nM	618 nM	10400 nM	2690	269 nM	2200 nM
COc1ccc(-c2nn(C(=O)c3cc(OC)c(OC)c(OC)c3)c3cc(N)ccc23)cc1	27.3 µM	2.19 µM	7.28 µM	7.21 µM	15.7 µM	1.75 µM	8.39 µM	3.63 µM	14.8 µM	4.43 µM	1.54	22.6 nM	0.0316 µM	< 10 nM	29.2 nM	< 10 nM	14.5 nM	< 19.1	2030 nM	< 14.8 nM
c1ccc2c(c1)-c1nc3ccccc3cc1C2N1CCOCC1 (configuration not stated)	> 100 µM	> 100 µM	> 100 µM	> 100 µM	> 100 µM	> 100 µM	> 100 µM	> 100 µM	> 100 µM	> 100 µM										
COC(=O)c1cccc(COc2ccc([N+](=O)[O-])cc2Cl)c1	> 100 µM	> 100 µM	> 100 µM	> 100 µM	> 100 µM	> 100 µM	> 100 µM	> 100 µM	> 100 µM	> 100 µM										
COc1ccc2nc3c(cc2c1)C(=O)CC(C(F)(F)F)C3 (configuration not stated)	> 100 µM	> 100 µM	> 100 µM	> 100 µM	> 100 µM	23.3 µM	> 100 µM	> 100 µM	> 100 µM	> 100 µM	5.56	3330 nM	4.23 µM	1280 nM	5390 nM	1410 nM	639 nM	4360	2570 nM	34600 nM
N[C@@H](Cc1ccc(N(CCCl)CCCl)cc1)C(=O)O	> 100 µM and 64.7 µM and 140 µM	> 100 µM and 50.4 µM and 97.2 µM	> 100 µM and 35.6 µM and 85.9 µM	> 100 µM and 54.9 µM and 133 µM	> 100 µM and 45.5 µM and 84.7 µM	49.2 µM and 72.1 µM and 128 µM	8.9 µM and 25.4 µM and 67.6 µM	48 µM and 72.6 µM	30.5 µM and 35.3 µM and 66 µM	> 100 µM and 52.2 µM and 148 µM	19.1	5530 nM and 6950 nM	19.3 µM and 13.9 µM	19400 nM and 21000 nM	20600 nM and 12500 nM	3950 nM and 16000 nM	2210 nM and 3860 nM	13300	13700 nM and 18300 nM	7080 nM and 5640 nM
NC(CSC(c1ccccc1)(c1ccccc1)c1ccc(Br)cc1)C(=O)O (configuration not stated)	> 100 µM	> 51.2 µM	> 72.7 µM	> 82 µM	66.7 µM	> 100 µM	> 100 µM	1.58 µM	> 88.6 µM	22.4 µM	5.13	57.3 nM	0.162 µM	258 nM	438 nM	76.4 nM	499 nM	119		151 nM
NC1=C(O)/C(=N/NS(=O)(=O)c2ccccc2)C(c2cccc(Cl)c2)O1 (configuration not stated)	> 90.4 µM	61.7 µM	> 100 µM	27 µM	73.5 µM	> 100 µM	> 58.4 µM	68.5 µM	54.8 µM	> 100 µM										
O=c1c(Br)ccc(Br)cc1Br	3.46 µM	77.6 µM	29.2 µM	2.48 µM	3.66 µM	22.4 µM	3.32 µM	3.7 µM	4.05 µM	6.57 µM	1.76	3810 nM	15.7 µM	752 nM	1720 nM	8010 nM	1700 nM	2070	1850 nM	2620 nM
O=P1(NCCCl)OCCC(OO)N1CCCl (configuration not stated)	> 100 µM	> 100 µM	> 100 µM	33.9 µM	> 84.8 µM	> 100 µM	35.9 µM	99.7 µM	31.7 µM	> 100 µM										
